This note sets out measurements from patent US6150385A, “1,3,4-thiadiazoles useful for the treatment of CMV infections” (Pharmacia & Upjohn Company, priority 1999, dated 2000).

Structures are written as SMILES.

By inhibition is commonly meant the share of the control response that was lost under treatment. Low values mean a weak effect, high ones a strong effect.

The target of the experiment is T1, HCMV polymerase (Human cytomegalovirus, UniProt P08546).
T1 construct: made in house; host or cells: SF-9 insect cells infected with recombinant baculovirus
T1 sequence (P08546 whole entry): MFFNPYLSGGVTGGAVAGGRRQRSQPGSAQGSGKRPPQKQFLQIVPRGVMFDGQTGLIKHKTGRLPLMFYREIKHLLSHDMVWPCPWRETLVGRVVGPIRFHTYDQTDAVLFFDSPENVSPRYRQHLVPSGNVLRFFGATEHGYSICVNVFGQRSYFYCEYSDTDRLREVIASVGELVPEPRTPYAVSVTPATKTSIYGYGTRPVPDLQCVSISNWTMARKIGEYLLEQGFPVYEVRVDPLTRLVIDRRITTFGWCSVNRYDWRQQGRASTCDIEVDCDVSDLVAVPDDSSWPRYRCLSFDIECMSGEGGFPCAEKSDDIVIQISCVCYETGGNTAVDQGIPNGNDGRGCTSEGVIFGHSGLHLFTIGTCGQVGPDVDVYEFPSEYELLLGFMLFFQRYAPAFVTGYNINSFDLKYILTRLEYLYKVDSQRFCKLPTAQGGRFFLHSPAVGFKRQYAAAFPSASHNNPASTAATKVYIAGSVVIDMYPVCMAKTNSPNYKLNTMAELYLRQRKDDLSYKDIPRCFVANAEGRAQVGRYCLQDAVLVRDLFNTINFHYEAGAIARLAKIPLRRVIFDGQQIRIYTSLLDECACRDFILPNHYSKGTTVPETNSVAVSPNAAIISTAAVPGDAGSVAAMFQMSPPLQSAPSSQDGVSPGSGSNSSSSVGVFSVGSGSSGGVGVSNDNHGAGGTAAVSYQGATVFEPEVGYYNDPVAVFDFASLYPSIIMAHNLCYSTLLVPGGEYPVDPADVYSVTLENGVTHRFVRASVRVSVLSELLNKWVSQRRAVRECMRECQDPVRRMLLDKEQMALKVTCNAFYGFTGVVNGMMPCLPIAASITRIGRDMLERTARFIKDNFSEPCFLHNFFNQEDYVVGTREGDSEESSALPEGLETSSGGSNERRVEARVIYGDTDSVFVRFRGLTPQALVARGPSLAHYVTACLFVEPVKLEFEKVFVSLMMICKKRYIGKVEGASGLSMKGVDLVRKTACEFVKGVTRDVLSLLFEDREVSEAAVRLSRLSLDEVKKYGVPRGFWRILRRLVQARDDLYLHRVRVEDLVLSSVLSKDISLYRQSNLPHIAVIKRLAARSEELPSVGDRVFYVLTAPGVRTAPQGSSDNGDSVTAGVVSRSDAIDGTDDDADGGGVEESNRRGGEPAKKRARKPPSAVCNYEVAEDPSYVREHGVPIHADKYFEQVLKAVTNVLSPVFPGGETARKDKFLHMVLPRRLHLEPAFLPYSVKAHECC
Nature of the experiment: HCMV polymerase assay (scintillation proximity assay). The note with it: percentage of inhibition at 25 μM concentration in CMV polymerase assay. It is filed as biochemical. A digest of the protocol: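 Baculovirus/SF-9-expressed HCMV polymerase in 5.4 mM HEPES pH 7.5, 11.7 mM KCl, 4.5 mM MgCl2, 0.36 mg/ml BSA, 90 nM 3H-dTTP, with or without 2 mM CHAPS. Started with 6 nM biotinylated poly(dA)-oligo(dT), 30 min at 25 or 37 °C, EDTA-stopped, read by streptavidin-SPA counting; % inhibition at 25 μM.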
On the technique in general: In a scintillation proximity assay essentially only radioactivity close to the scintillant gives light.
With `O=C(Nc1nnc(NCc2cccc3ccccc23)s1)c1cc2ccccc2s1` [compound 214, N-{5-[(1-naphthylmethyl)amino]-1,3,4-thiadiazol-2-yl}-1-benzothiophene-2-carboxamide], 25 µM produced 44.1% inhibition.
In the case of `Cc1ccc(C(=O)Nc2nnc(NCC3CCCCC3)s2)cc1` [compound 449, N-{5-[(cyclohexylmethyl)amino]-1,3,4-thiadiazol-2-yl}-4-methylbenzamide] it was 21.5%; in that of `CN1CCN(CCCNc2nnc(NC(=O)c3ccc(I)cc3)s2)CC1` [compound 467], 20.1%; in that of `O=C(Nc1nnc(NCCCCc2ccccc2)s1)c1ccc2c(c1)C(=O)OC2=O` [compound 11, 1,3-dioxo-N-{5-[(4-phenylbutyl)amino]-1,3,4-thiadiazol-2-yl}-1,3-dihydro-2-benzofuran-5-carboxamide], 99.6%.
Consider `O=C(Nc1nnc(NCCC(c2ccccc2)c2ccccc2)s1)c1ccc(C(F)(F)F)cc1` [compound 376, N-{5-[(3,3-diphenylpropyl)amino]-1,3,4-thiadiazol-2-yl}-4-(trifluoromethyl)benzamide], for which at 25 µM the inhibition was 27.9%.
In turn, `CCOc1ccc2ccccc2c1C(=O)Nc1nnc(NCC2CCCO2)s1` (stereo not shown) [compound 450, 2-ethoxy-N-{5-[(tetrahydro-2-furanylmethyl)amino]-1,3,4-thiadiazol-2-yl}-1-naphthamide] had an inhibition at 25 µM of 21.4%.
As for `O=C(/C=C/c1ccccc1Cl)Nc1nnc(NCC(c2ccccc2)c2ccccc2)s1` [compound 154, (E)-3-(2-chlorophenyl)-N-{5-[(2,2-diphenylethyl)amino]-1,3,4-thiadiazol-2-yl}-2-propenamide], the inhibition at 25 µM was 53.6%.
`O=C(Nc1nnc(NCc2ccc3c(c2)OCO3)s1)c1cc2ccccc2s1` [compound 180, N-{5-[(1,3-benzodioxol-5-ylmethyl)amino]-1,3,4-thiadiazol-2-yl}-1-benzothiophene-2-carboxamide] had an inhibition at 25 µM of 48.4%.
As to `O=C(Nc1nnc(NCCCN2CCCC2=O)s1)c1ccc(Cl)c(Cl)c1` [compound 191, 3,4-dichloro-N-(5-{[3-(2-oxo-1-pyrrolidinyl)propyl]amino}-1,3,4-thiadiazol-2-yl)benzamide], at 25 µM the inhibition was 47.1%.
In the case of `CCCCC(CC)CNc1nnc(NC(=O)c2c(Cl)cccc2Cl)s1` (stereo not shown) [compound 283, 2,6-dichloro-N-{5-[(2-ethylhexyl)amino]-1,3,4-thiadiazol-2-yl}benzamide] it was 37%.
